The subject of this data set is CCRIS mutagenicity, Ames/micronucleus/aberration tests. The data set is described as follows: CCRIS mutagenicity studies. The note with it: Test System: AMES SALMONELLA TYPHIMURIUM
The mark [1] stands for this setting: Strain/Indicator: TA98, Metabolic Activation: NONE, Method: STANDARD PLATE.
Setting [2] is: Strain/Indicator: TA100, Metabolic Activation: NONE, Method: STANDARD PLATE.
Setting [3] is: Strain/Indicator: TA1537, Metabolic Activation: NONE, Method: STANDARD PLATE.

The source made the active and inactive calls. How the calls were made is not given here.

For `CCCCCCCCCCCCCCCCCC[N+](C)(C)Cc1ccccc1`, the mutagenic call was “inactive; negative” (Strain/Indicator: TA97, Metabolic Activation: HAMSTER, LIVER, S-9, AROCLOR 1254 (10%), Method: PREINCUBATION); “inactive; negative” (Strain/Indicator: TA97, Metabolic Activation: HAMSTER, LIVER, S-9, AROCLOR 1254 (30%), Method: PREINCUBATION); “inactive; negative” (Strain/Indicator: TA97, Metabolic Activation: NONE, Method: PREINCUBATION); “inactive; negative” (Strain/Indicator: TA97, Metabolic Activation: RAT, LIVER, S-9, AROCLOR 1254 (10%), Method: PREINCUBATION); “inactive; negative” (Strain/Indicator: TA97, Metabolic Activation: RAT, LIVER, S-9, AROCLOR 1254 (30%), Method: PREINCUBATION); “inactive; negative” (Strain/Indicator: TA98, Metabolic Activation: HAMSTER, LIVER, S-9, AROCLOR 1254 (10%), Method: PREINCUBATION). Besides, the mutagenic call was “inactive; negative” (Strain/Indicator: TA98, Metabolic Activation: HAMSTER, LIVER, S-9, AROCLOR 1254 (30%), Method: PREINCUBATION); “inactive; negative” (Strain/Indicator: TA98, Metabolic Activation: NONE, Method: PREINCUBATION); “inactive; negative” (Strain/Indicator: TA98, Metabolic Activation: RAT, LIVER, S-9, AROCLOR 1254 (10%), Method: PREINCUBATION); “inactive; negative” (Strain/Indicator: TA98, Metabolic Activation: RAT, LIVER, S-9, AROCLOR 1254 (30%), Method: PREINCUBATION); “inactive; negative” (Strain/Indicator: TA100, Metabolic Activation: HAMSTER, LIVER, S-9, AROCLOR 1254 (10%), Method: PREINCUBATION); “inactive; negative” (Strain/Indicator: TA100, Metabolic Activation: HAMSTER, LIVER, S-9, AROCLOR 1254 (30%), Method: PREINCUBATION). Besides, the mutagenic call was “inactive; negative” (Strain/Indicator: TA100, Metabolic Activation: NONE, Method: PREINCUBATION); “inactive; negative” (Strain/Indicator: TA100, Metabolic Activation: RAT, LIVER, S-9, AROCLOR 1254 (10%), Method: PREINCUBATION); “inactive; negative” (Strain/Indicator: TA100, Metabolic Activation: RAT, LIVER, S-9, AROCLOR 1254 (30%), Method: PREINCUBATION); “inactive; negative” (Strain/Indicator: TA1535, Metabolic Activation: HAMSTER, LIVER, S-9, AROCLOR 1254 (10%), Method: PREINCUBATION); “inactive; negative” (Strain/Indicator: TA1535, Metabolic Activation: HAMSTER, LIVER, S-9, AROCLOR 1254 (30%), Method: PREINCUBATION); “inactive; negative” (Strain/Indicator: TA1535, Metabolic Activation: NONE, Method: PREINCUBATION). Further, the mutagenic call (Strain/Indicator: TA1535, Metabolic Activation: RAT, LIVER, S-9, AROCLOR 1254 (10%), Method: PREINCUBATION) was “inactive; negative”; the mutagenic call (Strain/Indicator: TA1535, Metabolic Activation: RAT, LIVER, S-9, AROCLOR 1254 (30%), Method: PREINCUBATION) is “inactive; negative”; the mutagenic call (Strain/Indicator: TA1537, Metabolic Activation: HAMSTER, LIVER, S-9, AROCLOR 1254 (30%), Method: PREINCUBATION) is “inactive; negative”; the mutagenic call (Strain/Indicator: TA1537, Metabolic Activation: NONE, Method: PREINCUBATION) is “inactive; negative”; the mutagenic call (Strain/Indicator: TA1537, Metabolic Activation: RAT, LIVER, S-9, AROCLOR 1254 (30%), Method: PREINCUBATION) was “inactive; negative”.

As to `Cc1ccc2c3c(cc4ccccc42)-c2ccccc2-c13`, for the setting “Strain/Indicator: TA100, Metabolic Activation: RAT, LIVER, S-9, AROCLOR 1254”, the mutagenic call was “active; positive”.

Regarding `O=S1(=O)c2cccc3ccc4c5ccccc5cc1c4c23`, the mutagenic call is “active; positive” under setting [1]; “active; positive” (Strain/Indicator: TA98, Metabolic Activation: RAT, LIVER, S-9, AROCLOR 1254 (10%), Method: STANDARD PLATE); “active; positive” under setting [2]; “active; positive” (Strain/Indicator: TA100, Metabolic Activation: RAT, LIVER, S-9, AROCLOR 1254 (10%), Method: STANDARD PLATE).

In the case of `Cl.Cl.[Cr].c1ccc(-c2ccccn2)nc1.c1ccc(-c2ccccn2)nc1`, under setting [2], the mutagenic call is “active; positive”.

For the compound `Nc1ccc2[nH]c3ccccc3c2c1`, the mutagenic call is, setting by setting: under setting [1], “inactive; negative”; (Strain/Indicator: TA98, Metabolic Activation: RAT LIVER S-9, AROCLOR 1254, Method: STANDARD PLATE) “active; positive”; (Strain/Indicator: TA98, Metabolic Activation: RAT, LIVER, S-9, PHENOBARBITAL, Method: STANDARD PLATE) “active; positive”; under setting [2], “inactive; negative”; (Strain/Indicator: TA100, Metabolic Activation: RAT LIVER S-9, AROCLOR 1254, Method: STANDARD PLATE) “inactive; negative”; (Strain/Indicator: TA100, Metabolic Activation: RAT, LIVER, S-9, PHENOBARBITAL, Method: STANDARD PLATE) “inactive; negative”. In addition, the mutagenic call under setting [3] is “inactive; negative”; the mutagenic call (Strain/Indicator: TA1537, Metabolic Activation: RAT, LIVER, S-9, PHENOBARBITAL, Method: STANDARD PLATE) was “inactive; negative”; the mutagenic call (Strain/Indicator: TA1538, Metabolic Activation: NONE, Method: STANDARD PLATE) is “inactive; negative”; the mutagenic call (Strain/Indicator: TA1538, Metabolic Activation: RAT, LIVER, S-9, PHENOBARBITAL, Method: STANDARD PLATE) was “active; positive”; the mutagenic call (Strain/Indicator: TA1977, Metabolic Activation: NONE, Method: STANDARD PLATE) was “inactive; negative”; the mutagenic call (Strain/Indicator: TA1977, Metabolic Activation: RAT, LIVER, S-9, PHENOBARBITAL, Method: STANDARD PLATE) was “inactive; negative”.

Consider `Brc1ccc2c(c1)[C@@H]1O[C@@H]1[C@H]1CCCC[C@H]21`, for which the mutagenic call runs as follows: under setting [1], “inactive; negative”; under setting [2], “inactive; negative”.

As for `Cc1ccc2nsc(NC(=O)C(Cl)(Cl)Cl)c2c1`, the mutagenic call under setting [1] is “active; positive”; the mutagenic call (Strain/Indicator: TA98, Metabolic Activation: S-9, Method: STANDARD PLATE) is “active; positive”; the mutagenic call under setting [2] is “active; positive”; the mutagenic call (Strain/Indicator: TA100, Metabolic Activation: S-9, Method: STANDARD PLATE) was “active; positive”; the mutagenic call (Strain/Indicator: TA1535, Metabolic Activation: NONE, Method: STANDARD PLATE) was “inactive; negative”; the mutagenic call (Strain/Indicator: TA1535, Metabolic Activation: S-9, Method: STANDARD PLATE) was “inactive; negative”. Moreover, the mutagenic call reads like this: under setting [3], “inactive; negative”; (Strain/Indicator: TA1537, Metabolic Activation: S-9, Method: STANDARD PLATE) “inactive; negative”.
